Source: article PMC12260505, “First-in-Human Phase I/IIa Study of the First-in-Class CDK2/4/6 Inhibitor PF-06873600 Alone or with Endocrine Therapy in Patients with Breast Cancer” (Clinical Cancer Research, 2025)

Tested on: Ki67
Test: IHC of Ki67 in paired tumor biopsies
Assay type: in vivo, human
Protocol: The pharmacodynamic effects of PF-06873600 were assessed by IHC staining of pRb and Ki67 in tumor biopsy samples collected at screening and day 1 of cycle 2 (4 hours after dose). Immunostaining was performed on […] formalin-fixed, paraffin-embedded tissue sections using rabbit monoclonal anti-Rb (Ser807/811) antibody (clone D20B12, Cell Signaling Technology) and rabbit monoclonal anti-Ki67 antibody (Ventana Medical Systems), respectively. pRb and Ki67 expressions were assessed semiquantitatively by a board-certified pathologist. Scoring was performed using the percentage of cells positive for Ki67 or a histo-score (H-score) methodology for pRb based on staining intensity and the percentage of positive cells. Intensity was scored as 0, none; 1, weak; 2, moderate; or 3, strong, and H-scores were calculated as follows: H-score = [fraction of cells with intensity grade 1 (%)] + [fraction of cells with intensity grade 2 (%) × 2] + [fraction of cells with intensity grade 3 (%) × 3].

C[C@@]1(O)CCC[C@H]1n1c(=O)c(C(F)F)cc2cnc(NC3CCN(S(C)(=O)=O)CC3)nc21 [PF-06873600]
Median percentage change in Ki67-positive cells from baseline (IR 25 mg twice daily monotherapy, cycle 2 day 1, HR+/HER2− mBC tumor biopsies): –11.7%
Median percentage change in Ki67-positive cells from baseline (IR 25 mg twice daily/fulvestrant combination, cycle 2 day 1): –35.9%
